Key:
229E Mpro = 229E Mpro (Human coronavirus 229E (HCoV-229E), UniProt P0C6X1); assay: 229E Mpro activity; assay type: biochemical; conditions: read-out: 229E Mpro EC50
Procedure: Compounds are assayed using standard methods to assess compound activity and IC50. […] The assay buffer contains 20 mM of Tris-HCl (pH 7.3), 100 mM of NaCl, 1 mM of EDTA, 5mM of TCEP and 0.1% BSA.

[1] = tested on: Human Coronavirus (HCov) 229E; assay: HCoV 229E cytopathic effect (CPE) assay; assay type: cell-based; conditions: protection from virus-induced CPE, CellTiter Glo
Procedure: The antiviral activity of compounds is calculated based on the protection of the virus-induced CPE at each concentration normalized by the virus control.
Reagents and instruments used in this assay include luminescent cell viability assay kit CellTiter Glo (Promega) and Microplate Reader Synergy2 (BioTek).
Cytopathic effect (CPE) is measured by CellTiter Glo following the manufacturer's manual. The antiviral activity of compounds is calculated based on the protection of the virus-induced CPE at each concentration normalized by the virus control.

SARS-CoV2 Mpro = SARS-CoV2 Mpro (Severe acute respiratory syndrome coronavirus 2 (2019-nCoV) (SARS-CoV-2), UniProt P0DTD1); assay: COVID-19 (SARS-CoV2) Mpro enzymatic assay; assay type: biochemical; conditions: 25 nM Mpro, 25 μM substrate

Sequence of 229E Mpro (P0C6X1 2966-3267 limits assumed): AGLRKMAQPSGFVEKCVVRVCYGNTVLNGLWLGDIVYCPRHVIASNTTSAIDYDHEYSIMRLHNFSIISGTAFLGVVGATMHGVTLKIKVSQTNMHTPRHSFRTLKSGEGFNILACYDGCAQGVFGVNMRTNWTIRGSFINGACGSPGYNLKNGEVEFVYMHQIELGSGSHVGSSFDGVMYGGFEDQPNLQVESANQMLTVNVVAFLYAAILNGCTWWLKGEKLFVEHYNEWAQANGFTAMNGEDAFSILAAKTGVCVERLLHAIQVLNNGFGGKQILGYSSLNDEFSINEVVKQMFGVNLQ

Compound | EC50 (229E Mpro) | EC50 ([1]; human coronavirus 229E) | EC50 [1] | IC50 (SARS-CoV2 Mpro)
N#C[C@H](C[C@@H]1CCNC1=O)NC(=O)[C@H](CC1CC1)NC(=O)c1cc2cc(Cl)ccc2[nH]1 [Compound 519, 5-chloro-N-[(1S)-2-[[(1S)-1-cyano-2-[(3S)-2-oxopyrrolidin-3-yl]ethyl]amino]-1-(cyclopropylmethyl)-2-oxo-ethyl]-1H-indole-2-carboxamide] | < 2000 nM | < 2000 nM | – | –
COc1cccc2[nH]c(C(=O)N[C@@H](CC(C)C)C(=O)N[C@@H](CC3CCNC3=O)C(C#N)NCc3ccccc3)cc12 (single isomer, unassigned) [507 (Isomer 2.2)] | < 2000 nM | – | < 2000 nM | –
COc1cccc2[nH]c(C(=O)N3C[C@H]4C([C@H]3C(=O)N[C@H](C#N)C[C@@H]3CCNC3=O)C4(C)C)cc12 (stereo partly drawn) [Compound 197, (2S,5S)-N-[(1S)-1-cyano-2-[(3S)-2-oxopyrrolidin-3-yl]ethyl]-3-(4-methoxy-1H-indole-2-carbonyl)-6,6-dimethyl-3-azabicyclo[3.1.0]hexane-2-carboxamide] | < 2000 nM | < 2000 nM | – | –
CC(C)C[C@H](NC(=O)c1cc2c(OC(F)F)cccc2[nH]1)C(=O)N[C@H](C#N)C[C@@H]1CCNC1=O [Compound 509, N-[(1S)-1-[[(1S)-1-cyano-2-[(3S)-2-oxopyrrolidin-3-yl]ethyl]carbamoyl]-3-methyl-butyl]-4-(difluoromethoxy)-1H-indole-2-carboxamide] | < 2000 nM | < 2000 nM | – | –
CCCOc1cccc2[nH]c(C(=O)N[C@@H](CC3CC3)C(=O)N[C@H](C#N)C[C@@H]3CCNC3=O)cc12 [Compound 379, N-[(1S)-2-[[(1S)-1-cyano-2-[(3S)-2-oxopyrrolidin-3-yl]ethyl]amino]-1-(cyclopropylmethyl)-2-oxo-ethyl]-4-propoxy-1H-indole-2-carboxamide] | < 2000 nM | < 2000 nM | – | –
COc1cccc2[nH]c(C(=O)N[C@@H](CC(C)C)C(=O)NC(C#N)c3cccnc3)cc12 (mixture of isomers) [Compound 433, N-[(1S)-1-[[cyano(3-pyridyl)methyl]carbamoyl]-3-methyl-butyl]-4-methoxy-1H-indole-2-carboxamide] | < 2000 nM | 2000 to 10000 nM | – | –
COc1cccc2[nH]c(C(=O)N[C@@H](CC(C)(C)C)C(=O)N[C@H](C#N)C[C@@H]3CCCNC3=O)cc12 [Compound 643, N-[(1S)-1-[[(1S)-1-cyano-2-[(3S)-2-oxo-3-piperidyl]ethyl]carbamoyl]-3,3-dimethyl-butyl]-4-methoxy-1H-indole-2-carboxamide] | < 2000 nM | < 2000 nM | – | –
COc1cccc2[nH]c(C(=O)N[C@@H](CC3CCC3)C(=O)N[C@H](C#N)C[C@@H]3CCNC3=O)cc12 [Compound 577, N-[(1S)-2-[[(1S)-1-cyano-2-[(3S)-2-oxopyrrolidin-3-yl]ethyl]amino]-1-(cyclobutylmethyl)-2-oxo-ethyl]-4-methoxy-1H-indole-2-carboxamide] | < 2000 nM | < 2000 nM | – | –
COc1cccc2[nH]c(C(=O)N3NCCC[C@H]3C(=O)N[C@H](C#N)C[C@@H]3CCNC3=O)cc12 [Compound 199] | > 30000 nM | – | – | 10000 to 30000 nM
COc1cccc2[nH]c(C(=O)N[C@@H](CC3CC3(F)F)C(=O)N[C@H](C#N)C[C@@H]3CCCNC3=O)cc12 (single isomer, unassigned) [1059 (Isomer 2)] | 10000 to 30000 nM | – | – | 10000 to 30000 nM
COc1cc(Cl)cc2[nH]c(C(=O)N3CC4(CCCCC4)CC3C(=O)N[C@H](C#N)C[C@@H]3CCCNC3=O)cc12 (single isomer, unassigned) [908 (Isomer 2)] | 2000 to 10000 nM | – | – | 2000 to 10000 nM
COCCOCCOC(=O)N[C@@H](CC1CC1)C(=O)N[C@H](C#N)C[C@@H]1CCNC1=O [Compound 671, 2-(2-methoxyethoxy)ethyl N-[(1S)-2-[[(1S)-1-cyano-2-[(3S)-2-oxopyrrolidin-3-yl]ethyl]amino]-1-(cyclopropylmethyl)-2-oxo-ethyl]carbamate] | 10000 to 30000 nM | – | – | 2000 to 10000 nM
N#C[C@H](C[C@@H]1CCCNC1=O)NC(=O)C1CC2(CN1C(=O)c1cc3cccc(Cl)c3[nH]1)CC(F)(F)C2 (single isomer, unassigned) [743 (Isomer 2)] | < 2000 nM | – | – | < 2000 nM
COc1ccc(Cl)c2[nH]c(C(=O)N3CC4(CCCCC4)CC3C(=O)NC(C#N)C[C@@H]3CCCNC3=O)cc12 (single isomer, unassigned) [902 (Isomer 1)] | < 2000 nM | – | – | < 2000 nM
COc1cccc2[nH]c(C(=O)N[C@@H](Cc3cccnc3)C(=O)N[C@H](C#N)C[C@@H]3CCNC3=O)cc12 [Compound 191, N-[(1S)-2-[[(1S)-1-cyano-2-[(3S)-2-oxopyrrolidin-3-yl]ethyl]amino]-2-oxo-1-(3-pyridylmethyl)ethyl]-4-methoxy-1H-indole-2-carboxamide] | > 30000 nM | – | – | 2000 to 10000 nM
CC1(C)CC(C[C@@H](C#N)NC(=O)[C@H](CC2CC2)NC(=O)c2cc3cccc(Cl)c3[nH]2)C(=O)N1 (single isomer, unassigned) [1053 (Isomer 1)] | > 30000 nM | – | – | 2000 to 10000 nM
COc1ccc(Cl)c2[nH]c(C(=O)N3CC4(CCCCC4)CC3C(=O)NC(C#N)C[C@@H]3CCCNC3=O)cc12 (single isomer, unassigned) [902 (Isomer 2)] | 10000 to 30000 nM | – | – | 2000 to 10000 nM
CC1(C)CC(C[C@@H](C#N)NC(=O)C2CC3(CCCCC3)CN2C(=O)c2cc3cccc(Cl)c3[nH]2)C(=O)N1 (single isomer, unassigned) [930 (Isomer 5)] | > 30000 nM | – | – | 10000 to 30000 nM
COc1cc(Cl)cc2[nH]c(C(=O)N3CC4(CCCCC4)CC3C(=O)N[C@H](C#N)C[C@@H]3CCCNC3=O)cc12 (single isomer, unassigned) [908 (Isomer 1)] | < 2000 nM | – | – | < 2000 nM

Compound | EC50 (229E Mpro) | EC50 ([1]; human coronavirus 229E) | EC50 [1] | IC50 (SARS-CoV2 Mpro)
CC1(C)CC(C[C@@H](C#N)NC(=O)C2CC3(CCCCC3)CN2C(=O)c2cc3cccc(Cl)c3[nH]2)C(=O)N1 (single isomer, unassigned) [930 (Isomer 6)] | < 2000 nM | – | – | < 2000 nM
N#C[C@H](C[C@@H]1CCCNC1=O)NC(=O)C1CC2(CCC2)CN1C(=O)c1cc2ccc(Cl)cc2[nH]1 (single isomer, unassigned) [791 (Isomer 2)] | < 2000 nM | – | – | < 2000 nM
COc1ccc(Cl)c2[nH]c(C(=O)N3CC4(CCCCC4)CC3C(=O)NC(C#N)C[C@@H]3CCCNC3=O)cc12 (single isomer, unassigned) [902 (Isomer 4)] | > 30000 nM | – | – | > 30000 nM
COc1cccc2[nH]c(C(=O)N[C@@H](CC3CC3)C(=O)N[C@](C)(C#N)CC3CCNC3=O)cc12 (single isomer, unassigned) [1055 (Isomer 2)] | > 30000 nM | – | – | > 30000 nM
COc1ccc2[nH]c(C(=O)N3CC4(CCC4)CC3C(=O)N[C@H](C#N)C[C@@H]3CCNC3=O)cc2c1Cl (single isomer, unassigned) [886 (Isomer 2)] | < 2000 nM | – | – | < 2000 nM
COc1cccc2[nH]c(C(=O)N3CC4(CCC(F)(F)CC4)CC3C(=O)N[C@H](C#N)C[C@@H]3CCCNC3=O)cc12 (single isomer, unassigned) [982 (Isomer 1)] | < 2000 nM | – | – | < 2000 nM
COc1cccc2[nH]c(C(=O)N[C@@H](CC3CC3(F)F)C(=O)N[C@H](C#N)C[C@@H]3CCCNC3=O)cc12 (single isomer, unassigned) [1059 (Isomer 1)] | < 2000 nM | – | – | < 2000 nM
CC1(C)CC(C[C@@H](C#N)NC(=O)C2CC3(CCCCC3)CN2C(=O)c2cc3cccc(Cl)c3[nH]2)C(=O)N1 (single isomer, unassigned) [930 (Isomer 3)] | < 2000 nM | – | – | < 2000 nM
COc1cccc2[nH]c(C(=O)N3CC4(CCC4)CC3C(=O)N[C@H](C#N)C[C@@H]3CCCNC3=O)cc12 (single isomer, unassigned) [719A (Isomer 1)] | 10000 to 30000 nM | – | – | 10000 to 30000 nM
N#C[C@H](C[C@@H]1CCNC1=O)NC(=O)C1CC2(CCC2)CN1C(=O)c1cc2cccc(Cl)c2[nH]1 (single isomer, unassigned) [988 (Isomer 2)] | < 2000 nM | – | – | < 2000 nM
CC(C)(C)OC(=O)N1CCCCC12CCN(C(CC1CC1)C(=O)N[C@H](C#N)C[C@@H]1CCNC1=O)C2=O (single isomer, unassigned) [473 (Isomer 1)] | > 30000 nM | – | – | > 30000 nM
N#C[C@H](C[C@@H]1CCNC1=O)NC(=O)C1CC2(CCC2)CN1C(=O)c1cc2ccc(Cl)c(Cl)c2[nH]1 (single isomer, unassigned) [814 (Isomer 1)] | > 30000 nM | – | – | > 30000 nM
CC1(C)CC(C[C@@H](C#N)NC(=O)C2CC3(CCCCC3)CN2C(=O)c2cc3cccc(Cl)c3[nH]2)C(=O)N1 (single isomer, unassigned) [930 (Isomer 3.1)] | < 2000 nM | – | – | < 2000 nM
N#C[C@H](C[C@@H]1CCCNC1=O)NC(=O)C1CC2(CCCCC2)CN1C(=O)c1cc2c(Cl)cccc2[nH]1 (single isomer, unassigned) [801 (Isomer 2)] | 10000 to 30000 nM | – | – | 10000 to 30000 nM
COc1ccc2[nH]c(C(=O)N3CC4(CCC4)CC3C(=O)N[C@H](C#N)C[C@@H]3CCNC3=O)cc2c1Cl (single isomer, unassigned) [886 (Isomer 1)] | > 30000 nM | – | – | > 30000 nM
COc1cccc2[nH]c(C(=O)N3CC4(CCCCC4)CC3C(=O)N[C@H](C#N)CC3CCC(C)(C)NC3=O)cc12 (single isomer, unassigned) [1111 (Isomer 3)] | 2000 to 10000 nM | – | – | < 2000 nM
N#C[C@H](C[C@@H]1CCCNC1=O)NC(=O)C1CC2(CCCCC2)CN1C(=O)c1cc2c(Cl)cccc2[nH]1 (single isomer, unassigned) [801 (Isomer 1)] | < 2000 nM | – | – | < 2000 nM
CC1(C)CCC(C[C@@H](C#N)NC(=O)C2CC3(CCCCC3)CN2C(=O)c2cc3cccc(Cl)c3[nH]2)C(=O)N1 (single isomer, unassigned) [928 (Isomer 4)] | > 30000 nM | – | – | 2000 to 10000 nM

Reference: US11524940B1, “Inhibitors of cysteine proteases and methods of use thereof” (priority 2020, dated 2022)
